PubChem BioAssay (NCI)
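Tested at 5 concentrations; 48 h exposure; 96-well plates; endpoints linearly interpolated, else capped at highest concentration. TGI denotes the concentration required for complete inhibition of growth.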

Tests used:
Assay in all cases: NCI anticancer screen, dose series, 48 h
A549 NSCLC = test system: A549 NSCLC
HCT-15 colon = test system: HCT-15 colon
HOP-18 NSCLC = test system: HOP-18 NSCLC
K-562 leukemia = test system: K-562 leukemia
LXFL 529 NSCLC = test system: LXFL 529 NSCLC
M19-MEL melanoma = test system: M19-MEL melanoma
OVCAR-3 ovarian = test system: OVCAR-3 ovarian
OVCAR-5 ovarian = test system: OVCAR-5 ovarian
RPMI-8226 leukemia = test system: RPMI-8226 leukemia
SK-MEL-28 melanoma = test system: SK-MEL-28 melanoma
SK-MEL-5 melanoma = test system: SK-MEL-5 melanoma
U251 CNS = test system: U251 CNS
OVCAR-4 ovarian = test system: OVCAR-4 ovarian
A498 renal = test system: A498 renal
HS 578T breast = test system: HS 578T breast
NCI/ADR-RES ovarian = test system: NCI/ADR-RES ovarian

**Q.** Which TGI (A549 NSCLC) does the source give for `COC(=O)C(=Cc1cc(OC)c(OC)c(OC)c1-c1cc2c(cc1C(C)=O)OCO2)C(=O)OC` here?
**A.** 165 µM

**Q.** What about the TGI (HCT-15 colon) of the same molecule?
**A.** 50.2 µM

**Q.** And the TGI (HOP-18 NSCLC)?
**A.** 87.4 µM

**Q.** What about the TGI (K-562 leukemia) of the same molecule?
**A.** > 211 µM

**Q.** And the TGI (LXFL 529 NSCLC)?
**A.** 65.9 µM

**Q.** What about the TGI (M19-MEL melanoma) of the same molecule?
**A.** 75 µM

**Q.** What about the TGI (OVCAR-3 ovarian) of the same molecule?
**A.** 56.2 µM

**Q.** And the TGI (OVCAR-5 ovarian)?
**A.** 74.1 µM

**Q.** What about the TGI (RPMI-8226 leukemia) of the same molecule?
**A.** > 211 µM

**Q.** What about the TGI (SK-MEL-28 melanoma) of the same molecule?
**A.** 78.1 µM

**Q.** What about the TGI (SK-MEL-5 melanoma) of the same molecule?
**A.** 70.1 µM

**Q.** What about the TGI (U251 CNS) of the same molecule?
**A.** 66.4 µM

**Q.** For `C/C(=C1/CCC/C(=C(/C)c2ccccc2)C1=O)c1ccccc1`, which TGI (A549 NSCLC) is on record?
**A.** > 100 µM

**Q.** What about the TGI (HCT-15 colon) of the same molecule?
**A.** > 100 µM

**Q.** What about the TGI (HOP-18 NSCLC) of the same molecule?
**A.** > 100 µM

**Q.** And the TGI (K-562 leukemia)?
**A.** 47.1 µM

**Q.** And the TGI (LXFL 529 NSCLC)?
**A.** > 100 µM

**Q.** And the TGI (M19-MEL melanoma)?
**A.** 58.3 µM

**Q.** What about the TGI (OVCAR-3 ovarian) of the same molecule?
**A.** > 100 µM

**Q.** What about the TGI (OVCAR-4 ovarian) of the same molecule?
**A.** > 100 µM

**Q.** What about the TGI (OVCAR-5 ovarian) of the same molecule?
**A.** > 100 µM

**Q.** And the TGI (RPMI-8226 leukemia)?
**A.** > 100 µM

**Q.** And the TGI (SK-MEL-28 melanoma)?
**A.** > 100 µM

**Q.** And the TGI (SK-MEL-5 melanoma)?
**A.** 47.8 µM

**Q.** What about the TGI (U251 CNS) of the same molecule?
**A.** 74.2 µM

**Q.** For `CCO/N=C(/N)c1ncn(Cc2ccccc2)c1NCC(OCC)OCC`, which TGI (A498 renal) is on record?
**A.** > 100 µM

**Q.** And the TGI (A549 NSCLC)?
**A.** > 100 µM

**Q.** And the TGI (HCT-15 colon)?
**A.** > 100 µM

**Q.** And the TGI (K-562 leukemia)?
**A.** > 100 µM

**Q.** What about the TGI (LXFL 529 NSCLC) of the same molecule?
**A.** > 100 µM

**Q.** What about the TGI (M19-MEL melanoma) of the same molecule?
**A.** > 100 µM

**Q.** What about the TGI (OVCAR-3 ovarian) of the same molecule?
**A.** > 100 µM

**Q.** What about the TGI (OVCAR-5 ovarian) of the same molecule?
**A.** > 100 µM

**Q.** And the TGI (RPMI-8226 leukemia)?
**A.** > 100 µM

**Q.** What about the TGI (SK-MEL-5 melanoma) of the same molecule?
**A.** > 100 µM

**Q.** And the TGI (U251 CNS)?
**A.** > 100 µM

**Q.** How did the TGI (A498 renal) turn out when `O=C(Nc1ccc(Cl)cc1Cl)C(=O)C(C(=O)c1ccncc1)C1OC(=O)c2ccccc21` (stereo unspecified) was run?
**A.** > 100 µM

**Q.** What about the TGI (A549 NSCLC) of the same molecule?
**A.** > 100 µM

**Q.** And the TGI (HCT-15 colon)?
**A.** > 100 µM

**Q.** And the TGI (HOP-18 NSCLC)?
**A.** > 100 µM

**Q.** What about the TGI (K-562 leukemia) of the same molecule?
**A.** > 100 µM

**Q.** And the TGI (LXFL 529 NSCLC)?
**A.** > 100 µM

**Q.** And the TGI (M19-MEL melanoma)?
**A.** > 100 µM

**Q.** What about the TGI (OVCAR-3 ovarian) of the same molecule?
**A.** > 100 µM

**Q.** And the TGI (OVCAR-4 ovarian)?
**A.** > 100 µM

**Q.** What about the TGI (OVCAR-5 ovarian) of the same molecule?
**A.** > 100 µM

**Q.** What about the TGI (RPMI-8226 leukemia) of the same molecule?
**A.** > 100 µM

**Q.** And the TGI (SK-MEL-28 melanoma)?
**A.** > 100 µM

**Q.** And the TGI (SK-MEL-5 melanoma)?
**A.** > 100 µM

**Q.** And the TGI (U251 CNS)?
**A.** > 100 µM

**Q.** `CC(C)N1CN(C(C(=O)N[C@@H]2C(=O)N3C2SC(C)(C)C3C(=O)O)c2ccccc2)CSC1=S` (stereo partly specified) was tested. Which TGI (A498 renal) did it give?
**A.** > 100 µM

**Q.** And the TGI (HCT-15 colon)?
**A.** > 100 µM

**Q.** What about the TGI (HOP-18 NSCLC) of the same molecule?
**A.** > 100 µM

**Q.** What about the TGI (K-562 leukemia) of the same molecule?
**A.** > 100 µM

**Q.** What about the TGI (LXFL 529 NSCLC) of the same molecule?
**A.** > 100 µM

**Q.** What about the TGI (M19-MEL melanoma) of the same molecule?
**A.** > 100 µM

**Q.** And the TGI (OVCAR-3 ovarian)?
**A.** > 100 µM

**Q.** What about the TGI (OVCAR-4 ovarian) of the same molecule?
**A.** > 100 µM

**Q.** And the TGI (OVCAR-5 ovarian)?
**A.** > 100 µM

**Q.** What about the TGI (RPMI-8226 leukemia) of the same molecule?
**A.** > 100 µM

**Q.** What about the TGI (SK-MEL-28 melanoma) of the same molecule?
**A.** > 100 µM

**Q.** What about the TGI (SK-MEL-5 melanoma) of the same molecule?
**A.** > 100 µM

**Q.** And the TGI (U251 CNS)?
**A.** > 100 µM

**Q.** Which results are given for `C=C1CCC23CC(CC[C@@H]2[C@@]12C[C@@H](c1ccoc1)OC2=O)OC3=O` (stereo partly specified)?
**A.** TGI (A498 renal): > 100 µM; TGI (A549 NSCLC): > 100 µM; TGI (HCT-15 colon): > 100 µM; TGI (HOP-18 NSCLC): > 100 µM; TGI (K-562 leukemia): > 100 µM; TGI (LXFL 529 NSCLC): > 100 µM; TGI (M19-MEL melanoma): > 100 µM; TGI (OVCAR-3 ovarian): > 100 µM; TGI (OVCAR-4 ovarian): > 100 µM; TGI (OVCAR-5 ovarian): > 100 µM; TGI (RPMI-8226 leukemia): > 100 µM; TGI (SK-MEL-5 melanoma): > 100 µM; TGI (U251 CNS): > 100 µM

**Q.** With `COc1cccc(N2C(=O)[C@H]3CC(C)c4c([nH]c5ccccc45)[C@H]3C2=O)c1` (stereo partly specified) as the molecule, how does the TGI (A498 renal) read?
**A.** > 100 µM

**Q.** And the TGI (A549 NSCLC)?
**A.** > 100 µM

**Q.** What about the TGI (HCT-15 colon) of the same molecule?
**A.** > 100 µM

**Q.** And the TGI (K-562 leukemia)?
**A.** > 100 µM

**Q.** What about the TGI (LXFL 529 NSCLC) of the same molecule?
**A.** > 100 µM

**Q.** What about the TGI (M19-MEL melanoma) of the same molecule?
**A.** > 100 µM

**Q.** What about the TGI (OVCAR-3 ovarian) of the same molecule?
**A.** > 100 µM

**Q.** And the TGI (RPMI-8226 leukemia)?
**A.** > 100 µM

**Q.** What about the TGI (SK-MEL-28 melanoma) of the same molecule?
**A.** > 100 µM

**Q.** And the TGI (SK-MEL-5 melanoma)?
**A.** > 100 µM

**Q.** What about the TGI (U251 CNS) of the same molecule?
**A.** > 100 µM

**Q.** `Clc1ccc(-c2c(C3=NCCCN3)nnn2-c2ccc(Cl)cc2)cc1` was tested. Which TGI (A498 renal) did it give?
**A.** > 96.8 µM

**Q.** What about the TGI (A549 NSCLC) of the same molecule?
**A.** > 100 µM

**Q.** What about the TGI (HCT-15 colon) of the same molecule?
**A.** > 100 µM

**Q.** What about the TGI (HOP-18 NSCLC) of the same molecule?
**A.** > 100 µM

**Q.** What about the TGI (HS 578T breast) of the same molecule?
**A.** > 59.5 µM

**Q.** What about the TGI (K-562 leukemia) of the same molecule?
**A.** 48.5 µM

**Q.** What about the TGI (LXFL 529 NSCLC) of the same molecule?
**A.** > 83.3 µM

**Q.** What about the TGI (NCI/ADR-RES ovarian) of the same molecule?
**A.** > 86.4 µM

**Q.** What about the TGI (OVCAR-3 ovarian) of the same molecule?
**A.** > 100 µM

**Q.** What about the TGI (OVCAR-4 ovarian) of the same molecule?
**A.** > 100 µM

**Q.** And the TGI (OVCAR-5 ovarian)?
**A.** > 89.8 µM

**Q.** What about the TGI (RPMI-8226 leukemia) of the same molecule?
**A.** 62.4 µM

**Q.** And the TGI (SK-MEL-28 melanoma)?
**A.** 31.6 µM

**Q.** And the TGI (SK-MEL-5 melanoma)?
**A.** 35.9 µM

**Q.** What about the TGI (U251 CNS) of the same molecule?
**A.** > 75.8 µM

**Q.** With `Cc1ccc(S(=O)(=O)OC(c2ccc(Cl)cc2Cl)C2OC(=O)c3ccccc32)cc1` (stereo unspecified) as the molecule, how does the TGI (A549 NSCLC) read?
**A.** > 100 µM

**Q.** What about the TGI (HCT-15 colon) of the same molecule?
**A.** > 100 µM

**Q.** And the TGI (K-562 leukemia)?
**A.** > 100 µM

**Q.** What about the TGI (LXFL 529 NSCLC) of the same molecule?
**A.** > 100 µM

**Q.** And the TGI (M19-MEL melanoma)?
**A.** > 100 µM

**Q.** And the TGI (OVCAR-3 ovarian)?
**A.** > 100 µM

**Q.** What about the TGI (OVCAR-4 ovarian) of the same molecule?
**A.** > 100 µM

**Q.** What about the TGI (OVCAR-5 ovarian) of the same molecule?
**A.** > 100 µM

**Q.** What about the TGI (RPMI-8226 leukemia) of the same molecule?
**A.** > 100 µM

**Q.** And the TGI (SK-MEL-28 melanoma)?
**A.** > 100 µM

**Q.** And the TGI (SK-MEL-5 melanoma)?
**A.** > 100 µM

**Q.** What about the TGI (U251 CNS) of the same molecule?
**A.** > 100 µM

**Q.** With `CCOC(=O)C(Cc1cn(S(=O)(=O)c2ccccc2)c2ccccc12)(NC(C)=O)C(=O)OCC` as the molecule, how does the TGI (A549 NSCLC) read?
**A.** > 100 µM

**Q.** What about the TGI (HCT-15 colon) of the same molecule?
**A.** > 100 µM

**Q.** And the TGI (K-562 leukemia)?
**A.** > 100 µM

**Q.** And the TGI (LXFL 529 NSCLC)?
**A.** 95.5 µM

**Q.** And the TGI (M19-MEL melanoma)?
**A.** > 100 µM

**Q.** And the TGI (OVCAR-3 ovarian)?
**A.** > 100 µM

**Q.** What about the TGI (OVCAR-4 ovarian) of the same molecule?
**A.** > 100 µM

**Q.** And the TGI (OVCAR-5 ovarian)?
**A.** > 100 µM

**Q.** What about the TGI (RPMI-8226 leukemia) of the same molecule?
**A.** 44.7 µM

**Q.** What about the TGI (SK-MEL-28 melanoma) of the same molecule?
**A.** > 100 µM

**Q.** What about the TGI (SK-MEL-5 melanoma) of the same molecule?
**A.** 33.7 µM

**Q.** And the TGI (U251 CNS)?
**A.** > 100 µM
